The results in this text go back to patent publication US12595517B2, “Method to treat and stratify a patient suffering from a cancer” (INSERM (INSTITUT NATIONAL DE LA SANTÉ ET DE LA RECHERCHE …, priority 2020, dated 2026).

In one data set the test system is 3′UTR/Bim plasmid. Briefly: Luciferase 3'UTR reporter assay. It is filed as cell-based, human. Particulars: A172. The method, then:
Cells were seeded in 24-well plates and were transfected with the indicated firefly luciferase constructs together with an SV40-renilla control vector. Lysates were prepared at […], and luciferase activity was measured using the Dual Luciferase Reporter Assay system (Promega, France) and a luminometer (MicroLumat Plus, EG&G Berthold, France).

The subject of a further data set is Bim. Briefly: Bim expression (in-cell ELISA, RT-qPCR) in A172 cells. It is filed as cell-based, human. As for the experimental part:
In cell ELISA were performed using the Bim Colorimetric Cell-Based ELISA kit (Aviva Systems Biology, France) according to the manufacturer's instructions. Briefly, 5 000 cells were seeded in 96-well plate to be exposed or not to indicated exosome or miRNA. After that, cells were treated with a fixing solution (4% of paraformaldehyde solution) for 10 min at room temperature. Primary antibody was incubated overnight at 4° C. Adequate HRP-conjugated secondary antibodies were incubated for 1 hour at room temperature. Detection was performed at 450 nm.
After washes, cells in each well were incubated with crystal violet solution for 5 min at room temperature, according to the manufacturer's instructions. Absorbance was read at 595 nm, and used to normalize the “Bim signal”.
RNA extract is performed using RNeasy Mini QIAcube Kit and QIAcube (Qiagen, France). RT-qPCRs are performed using QuantiTect Reverse Transcription Kit, Rotor-Gene SYBR Green PCR Kit, QuantiTect Primer Assays and Rotor-Gene Q as real-time thermocycler (Qiagen, France). Reference gene RPLPO was used, with the 2-ΔΔCt relative quantification method.
Background: In an ELISA, binding on a coated surface is turned into a signal by an enzyme label.

For the next data set, the system named is A549-induced tumors. The data set can be described thus: A549-inoculated xenograft mice, tumor volume. It is filed as in vivo. The method, then: The experimental procedures using animals were in accordance with Institutional Animal Care guidelines and the French National Committee of Ethics. In addition, all experiments were conducted according to the Regulations for Animal Experimentation at the “Plate-forme […] the “Institut de Recherche en Santé de l'Université de Nantes (IRS-15N)” and approved by the French National Committee of Ethics. Cultured A549 cells were harvested by trypsinization, washed and resuspended in saline buffer. Cell suspensions were injected subcutaneously (s.c.) into the flanks of 7-/8-week-old mice (Janvier, France). Tumor volume based on caliper measurements was calculated using the modified ellipsoidal formula (Tumor volume=1⁄2(length×width2)).

For data set [1], the system named is A549 (a lung cancer cell line). Briefly: Chemotherapy-induced cell death, PARP and Caspase-3 cleavage in A549. It is filed as cell-based, human. Particulars: A549 exposed to Exo/αPD1; CIS 5 μM, ABT263 15 μM. The method, then: Colorimetric Cell Cytotoxicity Assay Kit (Abcam, France) was used to estimate the cell viability. Briefly, cells were seeded in 96-well plate. After the realization of manufacturer's instruction, absorbance was read at 570 and 605 nm using Victor™x3 spectrophotometer (Perkin-Elmer, France).
Levels of cleaved caspase-3 and cleaved PARP are considered as both biomarkers of apoptosis. The measurement of these two parameters was performed using the Human Cleaved PARP1 and Human Cleaved Caspase-3 ELISA Kits (Abcam, France) according to the manufacturer's protocol.
In view of the data described above, associating the ineffectiveness of cisplatin+αPD1 therapy with exomiR-4315-induced Bim down-expression, we then studied the effect of a “Bim/BH3 mimetic drug” such as ABT263 on the resistance to cisplatin of A549 cells exposed to Exo/αPD1. A549 lung cancer cells were then exposed to Exo/αPD1 and Exo prior to the addition of cisplatin (CIS, 5 μM) and/or ABT263 (15 μM). ABT263 abrogated the Exo/αPD1-induced resistance to CIS (FIG. 4A).

As to “5′CCGCUUUCUGAGCUGGAC (miScript mimic, further chemistry not given here) [mimic miR-4315, Syn-hsa-miR-4315 miScript miRNA Mimic]”, the “luciferase activity associated with the 3′UTR/Bim plasmid” value in the data set on 3′UTR/Bim plasmid is given as “decreased”. The “Bim expression (protein and mRNA levels)” value in the data set with Bim is “down-regulated”.
Take `CC1(C)CCC(c2ccc(Cl)cc2)=C(CN2CCN(c3ccc(C(=O)NS(=O)(=O)c4ccc(N[C@H](CCN5CCOCC5)CSc5ccccc5)c(S(=O)(=O)C(F)(F)F)c4)cc3)CC2)C1` [ABT263, navitoclax]: the “deleterious effect of Exo/αPD1 on the CIS-resistance of cancer cells” value in the data set on A549-induced tumors (A549 xenograft mice) is given as “suppressed”. For the same molecule, the “Exo/αPD1-induced resistance to CIS” value in data set [1] is recorded as “abrogated”.
Consider `N.N.[Cl][Pt][Cl]` [CIS, cisplatin], for which the “volume of A549-induced tumors” value in the data set with A549-induced tumors (xenograft mice) was “decreased”.
